# Test system: MV-4-11 cells
# Assay: Gene expression microarray analysis (Affymetrix PrimeView) and GSEA
# Format: cell-based, human
# Design: RFU PODN (11730768_x_at) / Fold change /veh PODN (11730768_x_at) / RFU LINC00158 (11744669_a_at) / Fold change /veh LINC00158 (11744669_a_at) / RFU DUSP10 (11751237_a_at) / Fold change /veh DUSP10 (11751237_a_at) / RFU ID3 (11757404_x_at) / Fold change /veh ID3 (11757404_x_at) / RFU PLEKHG5 (11737974_s_at) / Fold change /veh PLEKHG5 (11737974_s_at) / RFU LRRC4B (11730491_at) / Fold change /veh LRRC4B (11730491_at) / RFU GIMAP4 (11747438_a_at) / Fold change /veh GIMAP4 (11747438_a_at) / RFU KRT8 (11758183_x_at) / Fold change /veh KRT8 (11758183_x_at) / RFU CNN1 (11734310_a_at) / Fold change /veh CNN1 (11734310_a_at) / RFU VPS37D (11726825_at) / Fold change /veh VPS37D (11726825_at) / RFU C10orf10 (11716522_x_at) / Fold change /veh C10orf10 (11716522_x_at) / RFU KIR2DL2 /// KIR2DL4 /// KIR2DL5A /// KIR2DL5B /// KIR2DS1 /// KIR2DS2 /// KIR2DS3 /// KIR2DS4 /// KIR3DL3 /// KIR3DL3 /// KIR3DS1 (11738374_at) / Fold change /veh KIR2DL2 /// KIR2DL4 /// KIR2DL5A /// KIR2DL5B /// KIR2DS1 /// KIR2DS2 /// KIR2DS3 /// KIR2DS4 /// KIR3DL3 /// KIR3DL3 /// KIR3DS1 (11738374_at) / RFU C1QL1 (11718748_at) / Fold change /veh C1QL1 (11718748_at) / RFU TMPRSS4 (11747572_a_at) / Fold change /veh TMPRSS4 (11747572_a_at) / RFU HAMP (11756126_x_at) / Fold change /veh HAMP (11756126_x_at) / RFU RNFT2 (11725882_a_at) / Fold change /veh RNFT2 (11725882_a_at) / RFU NR4A2 (11747474_a_at) / Fold change /veh NR4A2 (11747474_a_at) / RFU ABCC12 (11746883_a_at) / Fold change /veh ABCC12 (11746883_a_at) / RFU TMEM136 (11760407_x_at) / Fold change /veh TMEM136 (11760407_x_at) / RFU CLDN22 /// WWC2 (11732394_at) / Fold change /veh CLDN22 /// WWC2 (11732394_at) / RFU HLA-DPB1 (11760878_x_at) / Fold change /veh HLA-DPB1 (11760878_x_at) / RFU SPINT1 (11716480_a_at) / Fold change /veh SPINT1 (11716480_a_at) / RFU GAP43 (11754022_s_at) / Fold change /veh GAP43 (11754022_s_at) / RFU A4GNT (11735810_at) / Fold change /veh A4GNT (11735810_at) / RFU PRB3 (11715151_x_at) / Fold change /veh PRB3 (11715151_x_at) / RFU TUBB4B (11761932_at) / Fold change /veh TUBB4B (11761932_at) / RFU CAPN14 (11732068_a_at) / Fold change /veh CAPN14 (11732068_a_at) / RFU TMCC2 (11721928_a_at) / Fold change /veh TMCC2 (11721928_a_at) / RFU IRGQ (11745062_a_at) / Fold change /veh IRGQ (11745062_a_at) / RFU FAM174B (11720279_a_at) / Fold change /veh FAM174B (11720279_a_at) / RFU TMPRSS4 (11748680_a_at) / Fold change /veh TMPRSS4 (11748680_a_at) / RFU FAM212B (11763350_a_at) / Fold change /veh FAM212B (11763350_a_at) / RFU PLEKHG5 (11743358_a_at) / Fold change /veh PLEKHG5 (11743358_a_at) / RFU ZSCAN30 (11745921_a_at) / Fold change /veh ZSCAN30 (11745921_a_at) / RFU CMKLR1 (11741424_a_at) / Fold change /veh CMKLR1 (11741424_a_at) / RFU LOC101060620 /// MAPK8IP1 (11723275_at) / Fold change /veh LOC101060620 /// MAPK8IP1 (11723275_at) / RFU SPTSSB (11747773_x_at) / Fold change /veh SPTSSB (11747773_x_at) / RFU PRSS12 (11739890_at) / Fold change /veh PRSS12 (11739890_at) / RFU BIN1 (11741810_x_at) / Fold change /veh BIN1 (11741810_x_at) / RFU WNT11 (11732464_a_at) / Fold change /veh WNT11 (11732464_a_at) / RFU C10orf10 (11716521_a_at) / Fold change /veh C10orf10 (11716521_a_at) / RFU C5orf56 (11738089_at) / Fold change /veh C5orf56 (11738089_at) / RFU CYB561 (11721691_x_at) / Fold change /veh CYB561 (11721691_x_at) / RFU ANKRD19P (11752326_a_at) / Fold change /veh ANKRD19P (11752326_a_at) / RFU OR2T12 /// OR2T33 /// OR2T8 (11738714_s_at) / Fold change /veh OR2T12 /// OR2T33 /// OR2T8 (11738714_s_at) / RFU VCAN (11748164_a_at) / Fold change /veh VCAN (11748164_a_at) / RFU JSRP1 (11732532_at) / Fold change /veh JSRP1 (11732532_at) / RFU KRTAP10-11 (11738290_x_at) / Fold change /veh KRTAP10-11 (11738290_x_at) / RFU MYO3A (11730013_a_at) / Fold change /veh MYO3A (11730013_a_at) / RFU EBF3 (11725865_a_at) / Fold change /veh EBF3 (11725865_a_at) / RFU CAMK2N1 (11719241_x_at) / Fold change /veh CAMK2N1 (11719241_x_at) / RFU C5orf56 (11738088_a_at) / Fold change /veh C5orf56 (11738088_a_at) / RFU OLFML3 (11715873_a_at) / Fold change /veh OLFML3 (11715873_a_at) / RFU LOC100653217 /// NTM (11731650_a_at) / Fold change /veh LOC100653217 /// NTM (11731650_a_at) / RFU MAPK11 (11762145_a_at) / Fold change /veh MAPK11 (11762145_a_at) / RFU FIZ1 (11724087_x_at) / Fold change /veh FIZ1 (11724087_x_at) / RFU OASL (11726364_x_at) / Fold change /veh OASL (11726364_x_at) / RFU SOX15 (11748057_x_at) / Fold change /veh SOX15 (11748057_x_at) / RFU CD79A (11719716_a_at) / Fold change /veh CD79A (11719716_a_at) / RFU HIST1H1D (11736915_at) / Fold change /veh HIST1H1D (11736915_at) / RFU CASKIN2 (11723855_a_at) / Fold change /veh CASKIN2 (11723855_a_at) / RFU LOC730098 (11760151_x_at) / Fold change /veh LOC730098 (11760151_x_at) / RFU OR4N2 (11742367_at) / Fold change /veh OR4N2 (11742367_at) / RFU PRRT2 (11749266_a_at) / Fold change /veh PRRT2 (11749266_a_at) / RFU SNX32 (11753110_a_at) / Fold change /veh SNX32 (11753110_a_at) / RFU CDHR5 (11726645_a_at) / Fold change /veh CDHR5 (11726645_a_at) / RFU RCAN1 (11760418_a_at) / Fold change /veh RCAN1 (11760418_a_at) / RFU FAM167A (11723789_a_at) / Fold change /veh FAM167A (11723789_a_at) / RFU FAM26E (11764081_at) / Fold change /veh FAM26E (11764081_at) / RFU ISYNA1 (11749810_s_at) / Fold change /veh ISYNA1 (11749810_s_at) / RFU ACY1 (11761880_at) / Fold change /veh ACY1 (11761880_at) / RFU 11764098_at / Fold change /veh 11764098_at / RFU SAMD14 (11745864_x_at) / Fold change /veh SAMD14 (11745864_x_at) / RFU NPB (11741838_a_at) / Fold change /veh NPB (11741838_a_at) / RFU TMPRSS6 (11731388_a_at) / Fold change /veh TMPRSS6 (11731388_a_at) / RFU KRTAP10-2 (11738614_at) / Fold change /veh KRTAP10-2 (11738614_at) / RFU ARHGAP8 /// PRR5-ARHGAP8 (11727945_x_at) / Fold change /veh ARHGAP8 /// PRR5-ARHGAP8 (11727945_x_at) / RFU KRTAP5-7 /// NADSYN1 (11734609_at) / Fold change /veh KRTAP5-7 /// NADSYN1 (11734609_at) / RFU RASL12 (11751679_a_at) / Fold change /veh RASL12 (11751679_a_at) / RFU CDKN2B (11736163_a_at) / Fold change /veh CDKN2B (11736163_a_at) / RFU PRF1 (11729649_at) / Fold change /veh PRF1 (11729649_at) / RFU, ZNF638 /// ZNF638-IT1 / Fold change vs veh, ZNF638 /// ZNF638-IT1 / RFU, PANK3 / Fold change vs veh, PANK3 / RFU, SH3YL1 / Fold change vs veh, SH3YL1 / RFU, ZEB2 / Fold change vs veh, ZEB2 / RFU, NRIP1 / Fold change vs veh, NRIP1 / RFU, PTTG1IP / Fold change vs veh, PTTG1IP / RFU, CAPN2 / Fold change vs veh, CAPN2 / RFU, MED14 / Fold change vs veh, MED14 / RFU, SNORA58 / Fold change vs veh, SNORA58 / RFU, C1orf63 / Fold change vs veh, C1orf63 / RFU, LRRFIP1 / Fold change vs veh, LRRFIP1 / RFU, NDUFAF7 / Fold change vs veh, NDUFAF7 / RFU, SLC12A2 / Fold change vs veh, SLC12A2 / RFU, IBTK / Fold change vs veh, IBTK / RFU, ESF1 / Fold change vs veh, ESF1 / Fold change vs veh, TMEM50B / RFU, TAOK1 / Fold change vs veh, TAOK1 / RFU, ACBD3 / Fold change vs veh, ACBD3 / RFU, TMA16 / Fold change vs veh, TMA16 / RFU, RWDD3 / Fold change vs veh, RWDD3 / RFU, BCAT1 / Fold change vs veh, BCAT1 / RFU, EDEM3 / Fold change vs veh, EDEM3 / RFU, TMEM33 / Fold change vs veh, TMEM33 / RFU, WDR75 / Fold change vs veh, WDR75 / RFU, AHCTF1 / Fold change vs veh, AHCTF1 / RFU, TFRC / Fold change vs veh, TFRC / RFU, ZDHHC17 / Fold change vs veh, ZDHHC17 / RFU, NOM1 / Fold change vs veh, NOM1 / RFU, ARL8B / Fold change vs veh, ARL8B / RFU, ZBTB11 / Fold change vs veh, ZBTB11 / RFU, TAMM41 / Fold change vs veh, TAMM41 / RFU, KIAA1704 /// LOC100996395 / Fold change vs veh, KIAA1704 /// LOC100996395 / RFU, ING1 / Fold change vs veh, ING1 / RFU, TRMT61B / Fold change vs veh, TRMT61B / RFU, FUBP3 / Fold change vs veh, FUBP3 / RFU, TP53 / Fold change vs veh, TP53 / RFU, TNKS2 / Fold change vs veh, TNKS2 / RFU, ZFP14 / Fold change vs veh, ZFP14 / RFU, ACTR2 / Fold change vs veh, ACTR2 / RFU, PPP3R1 / Fold change vs veh, PPP3R1 / RFU, PIK3R1 / Fold change vs veh, PIK3R1 / RFU, HNRNPA1 / Fold change vs veh, HNRNPA1 / RFU, RNF170 / Fold change vs veh, RNF170 / RFU, ZNF28 / Fold change vs veh, ZNF28 / RFU, RNGTT / Fold change vs veh, RNGTT / RFU, OGT / Fold change vs veh, OGT / RFU, BRD1 / Fold change vs veh, BRD1 / RFU, MARS / Fold change vs veh, MARS / RFU, ZNF655 / Fold change vs veh, ZNF655 / RFU, FAHD1 / Fold change vs veh, FAHD1 / RFU, BDP1 / Fold change vs veh, BDP1 / RFU, LRRCC1 / Fold change vs veh, LRRCC1 / RFU, ARID1A / Fold change vs veh, ARID1A / RFU, ZNF146 / Fold change vs veh, ZNF146 / RFU, ZNF330 / Fold change vs veh, ZNF330 / RFU, GPN3 / Fold change vs veh, GPN3 / RFU, C9orf123 / Fold change vs veh, C9orf123 / RFU, N4BP2L2 / Fold change vs veh, N4BP2L2 / RFU, ARFIP1 / Fold change vs veh, ARFIP1 / RFU, FAM179B / Fold change vs veh, FAM179B / RFU, BCL10 / Fold change vs veh, BCL10 / RFU, UHRF1BP1L / Fold change vs veh, UHRF1BP1L / RFU, BET1 / Fold change vs veh, BET1 / RFU, CNOT2 / Fold change vs veh, CNOT2 / RFU, ZNF268 / Fold change vs veh, ZNF268 / Fold change vs veh, ZNF507 / RFU, DGCR2 / Fold change vs veh, DGCR2 / RFU, WDSUB1 / Fold change vs veh, WDSUB1 / Fold change vs veh, HSP90B1 /// MIR3652 / RFU, ADSS / Fold change vs veh, ADSS / RFU, GK / Fold change vs veh, GK / RFU, ZNF148 / Fold change vs veh, ZNF148 / RFU, TAF9 / Fold change vs veh, TAF9 / RFU, SLC1A5 / Fold change vs veh, SLC1A5 / RFU, SLMO2 / Fold change vs veh, SLMO2 / RFU, ABCC4 / Fold change vs veh, ABCC4 / RFU, LOC101060439 /// RAP1B / Fold change vs veh, LOC101060439 /// RAP1B / RFU, RFX7 / Fold change vs veh, RFX7 / RFU, GTPBP10 / Fold change vs veh, GTPBP10 / RFU, CNEP1R1 / Fold change vs veh, CNEP1R1 / RFU, BIVM-ERCC5 /// ERCC5 / Fold change vs veh, BIVM-ERCC5 /// ERCC5 / RFU, ILF3 / Fold change vs veh, ILF3 / RFU 11762660_at / Fold change /veh 11762660_at / RFU VCAN (11757783_s_at) / Fold change /veh VCAN (11757783_s_at) / RFU DDX43 (11728927_at) / Fold change /veh DDX43 (11728927_at) / RFU KRT8 (11758188_x_at) / Fold change /veh KRT8 (11758188_x_at) / RFU NKD1 (11759106_at) / Fold change /veh NKD1 (11759106_at) / RFU SRD5A1 (11742802_a_at) / Fold change /veh SRD5A1 (11742802_a_at) / RFU TPSAB1 /// TPSB2 (11721975_s_at) / Fold change /veh TPSAB1 /// TPSB2 (11721975_s_at) / RFU GSTM3 (11746129_a_at) / Fold change /veh GSTM3 (11746129_a_at) / RFU IL23R (11737362_x_at) / Fold change /veh IL23R (11737362_x_at) / RFU TMEM51 (11727254_a_at) / Fold change /veh TMEM51 (11727254_a_at) / RFU PIWIL2 (11732686_x_at) / Fold change /veh PIWIL2 (11732686_x_at) / RFU ORM1 (11744905_x_at) / Fold change /veh ORM1 (11744905_x_at) / RFU CCDC152 (11743942_at) / Fold change /veh CCDC152 (11743942_at) / RFU ECM1 (11717891_a_at) / Fold change /veh ECM1 (11717891_a_at) / RFU IL23R (11748794_a_at) / Fold change /veh IL23R (11748794_a_at) / RFU TNFAIP8L3 (11732012_x_at) / Fold change /veh TNFAIP8L3 (11732012_x_at) / RFU MBOAT4 (11741988_at) / Fold change /veh MBOAT4 (11741988_at) / RFU 11764193_at / Fold change /veh 11764193_at / RFU TMEM53 (11763286_at) / Fold change /veh TMEM53 (11763286_at) / RFU MAGEB2 (11727129_at) / Fold change /veh MAGEB2 (11727129_at) / RFU TMEM200A (11744735_a_at) / Fold change /veh TMEM200A (11744735_a_at) / RFU CCDC152 (11751479_a_at) / Fold change /veh CCDC152 (11751479_a_at) / RFU FAM211A (11726209_a_at) / Fold change /veh FAM211A (11726209_a_at) / RFU RGS16 (11746705_a_at) / Fold change /veh RGS16 (11746705_a_at) / RFU VCAN (11755009_s_at) / Fold change /veh VCAN (11755009_s_at) / RFU RHOB (11743442_s_at) / Fold change /veh RHOB (11743442_s_at) / RFU RGS16 (11720943_a_at) / Fold change /veh RGS16 (11720943_a_at) / RFU RGS16 (11720944_at) / Fold change /veh RGS16 (11720944_at) / RFU, VPS4B / Fold change vs veh, VPS4B / RFU, CREB1 / Fold change vs veh, CREB1 / RFU, DNAJC13 / Fold change vs veh, DNAJC13 / RFU, GNAQ / Fold change vs veh, GNAQ / RFU, CDK5R1 / Fold change vs veh, CDK5R1 / RFU, ZRANB3 / Fold change vs veh, ZRANB3 / RFU, CUL4A / Fold change vs veh, CUL4A / RFU, CCNY / Fold change vs veh, CCNY / RFU, UFL1 / Fold change vs veh, UFL1 / RFU, COG3 / Fold change vs veh, COG3 / RFU, DIAPH2 / Fold change vs veh, DIAPH2 / RFU, SKA2 / Fold change vs veh, SKA2 / RFU, AFF3 / Fold change vs veh, AFF3 / RFU, LMF1 / Fold change vs veh, LMF1 / RFU, IPO11 / Fold change vs veh, IPO11 / RFU, DFFB / Fold change vs veh, DFFB / RFU, FOXP1 / Fold change vs veh, FOXP1 / RFU, CARD8 / Fold change vs veh, CARD8 / RFU, STRN3 / Fold change vs veh, STRN3 / RFU, ADK / Fold change vs veh, ADK / RFU, RASSF2 / Fold change vs veh, RASSF2 / RFU, WIPF1 / Fold change vs veh, WIPF1 / RFU, LARP1B / Fold change vs veh, LARP1B / RFU, RASA1 / Fold change vs veh, RASA1 / RFU, RB1 / Fold change vs veh, RB1 / RFU, PPFIA1 / Fold change vs veh, PPFIA1 / RFU, MAT2A / Fold change vs veh, MAT2A / RFU, CCT5 / Fold change vs veh, CCT5 / RFU, WDR92 / Fold change vs veh, WDR92 / RFU, CUX1 / Fold change vs veh, CUX1 / RFU, TTC7A / Fold change vs veh, TTC7A / RFU, TMEM135 / Fold change vs veh, TMEM135 / RFU, DEPTOR / Fold change vs veh, DEPTOR / RFU, CPM / Fold change vs veh, CPM / RFU, DNAJB6 / Fold change vs veh, DNAJB6 / RFU, CACNA2D3 / Fold change vs veh, CACNA2D3 / RFU, DTX4 / Fold change vs veh, DTX4 / RFU, TFCP2 / Fold change vs veh, TFCP2 / RFU, GMCL1 /// GMCL1P1 / Fold change vs veh, GMCL1 /// GMCL1P1 / RFU, AEBP2 / Fold change vs veh, AEBP2 / RFU, SNHG1 /// SNORD22 /// SNORD25 /// SNORD26 /// SNORD27 /// SNORD28 /// SNORD29 /// SNORD31 / Fold change vs veh, SNHG1 /// SNORD22 /// SNORD25 /// SNORD26 /// SNORD27 /// SNORD28 /// SNORD29 /// SNORD31 / Fold change (Aza/veh), C12orf56 (ProbeSet 11735607_a_at) / Fold change (ACY-1035/veh), C12orf56 (ProbeSet 11735607_a_at) / Fold change (Aza/veh), FGFR1OP (ProbeSet 11751329_s_at) / Fold change (ACY-1035/veh), FGFR1OP (ProbeSet 11751329_s_at) / Fold change (Aza/veh), VPS36 (ProbeSet 11739960_a_at) / Fold change (ACY-1035/veh), VPS36 (ProbeSet 11739960_a_at) / RFU SYPL1 (11715823_x_at) / Fold change /veh SYPL1 (11715823_x_at) / RFU IGFBP7 (11715501_s_at) / Fold change /veh IGFBP7 (11715501_s_at) / RFU REEP3 (11722064_at) / Fold change /veh REEP3 (11722064_at) / RFU IGLL1 (11728026_x_at) / Fold change /veh IGLL1 (11728026_x_at): dose or concentration left out as unconfirmed
# Conditions: MV-4-11 cells, 48 hours
smiles,measurement,value
Nc1ncn([C@@H]2O[C@H](CO)[C@@H](O)[C@H]2O)c(=O)n1 [azacitidine],Fold change /veh LOC101060620 /// MAPK8IP1 (11723275_at),0.98
